From ChEMBL document CHEMBL1240301, “Assignment of protein function in the postgenomic era” (Nat Chem Biol, 2005)

How the values were obtained:
[1] = Inhibition of wild-type v-Src
[2] = Inhibition of wild type CAMK2
[3] = molecular target: Cyclin-dependent kinase 2 (Homo sapiens, UniProt P24941); assay: Inhibition of wild type CDK2
[4] = Inhibition of v-Src kinase I338G mutant
[5] = Inhibition of c-Fyn T339G mutant
[6] = molecular target: Calcium/calmodulin-dependent protein kinase type II subunit alpha (Homo sapiens, UniProt Q9UQM7, F89G); assay: Inhibition of CAMK2 F89G mutant
[7] = molecular target: Cyclin-dependent kinase 2 (Homo sapiens, UniProt P24941, F80G); assay: Inhibition of CDK2 F80G mutant
[8] = molecular target: Tyrosine-protein kinase Fyn (Homo sapiens, UniProt P06241); assay: Inhibition of wild type c-Fyn
[9] = molecular target: Tyrosine-protein kinase ABL1 (Homo sapiens, UniProt P00519); assay: Inhibition of wild type c-Abl
[10] = molecular target: Tyrosine-protein kinase ABL1 (Homo sapiens, UniProt P00519, T315A); assay: Inhibition of c-Abl T315A mutant
Sequence of Tyrosine-protein kinase ABL1 (Homo sapiens, UniProt P00519, T315A) (P00519 whole entry T315A): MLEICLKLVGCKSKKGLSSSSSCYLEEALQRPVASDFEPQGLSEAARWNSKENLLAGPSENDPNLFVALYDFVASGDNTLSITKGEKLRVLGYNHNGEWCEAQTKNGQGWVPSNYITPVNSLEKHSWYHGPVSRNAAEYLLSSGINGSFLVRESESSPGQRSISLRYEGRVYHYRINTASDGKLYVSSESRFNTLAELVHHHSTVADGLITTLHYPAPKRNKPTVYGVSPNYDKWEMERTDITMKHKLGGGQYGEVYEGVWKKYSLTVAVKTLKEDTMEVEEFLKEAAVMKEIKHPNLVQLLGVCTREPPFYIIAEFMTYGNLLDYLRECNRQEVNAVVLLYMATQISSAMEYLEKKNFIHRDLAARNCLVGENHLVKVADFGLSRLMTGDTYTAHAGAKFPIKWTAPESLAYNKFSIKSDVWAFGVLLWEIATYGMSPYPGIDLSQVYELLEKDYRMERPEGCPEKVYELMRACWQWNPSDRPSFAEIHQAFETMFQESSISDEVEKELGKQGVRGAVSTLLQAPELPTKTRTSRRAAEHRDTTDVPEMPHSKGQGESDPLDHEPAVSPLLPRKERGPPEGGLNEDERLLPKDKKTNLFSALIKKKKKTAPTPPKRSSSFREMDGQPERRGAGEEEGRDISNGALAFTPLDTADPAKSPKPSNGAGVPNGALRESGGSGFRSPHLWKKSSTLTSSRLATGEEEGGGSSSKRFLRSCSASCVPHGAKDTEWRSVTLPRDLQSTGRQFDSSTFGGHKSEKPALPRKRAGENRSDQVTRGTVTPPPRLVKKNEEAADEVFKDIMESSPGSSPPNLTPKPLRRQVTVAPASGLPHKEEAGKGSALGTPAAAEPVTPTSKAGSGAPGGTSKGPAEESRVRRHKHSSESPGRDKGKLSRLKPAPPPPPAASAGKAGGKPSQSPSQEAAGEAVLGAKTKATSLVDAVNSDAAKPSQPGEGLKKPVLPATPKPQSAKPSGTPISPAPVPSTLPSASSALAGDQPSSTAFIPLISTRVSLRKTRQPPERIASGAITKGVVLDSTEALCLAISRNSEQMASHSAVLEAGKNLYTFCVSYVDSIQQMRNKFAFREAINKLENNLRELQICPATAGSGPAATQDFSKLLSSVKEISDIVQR

Sequence of Tyrosine-protein kinase ABL1 (Homo sapiens, UniProt P00519) (P00519 whole entry): as the sequence (P00519 whole entry T315A) above, with A315T counted along it
Sequence of Calcium/calmodulin-dependent protein kinase type II subunit alpha (Q9UQM7 whole entry F89G): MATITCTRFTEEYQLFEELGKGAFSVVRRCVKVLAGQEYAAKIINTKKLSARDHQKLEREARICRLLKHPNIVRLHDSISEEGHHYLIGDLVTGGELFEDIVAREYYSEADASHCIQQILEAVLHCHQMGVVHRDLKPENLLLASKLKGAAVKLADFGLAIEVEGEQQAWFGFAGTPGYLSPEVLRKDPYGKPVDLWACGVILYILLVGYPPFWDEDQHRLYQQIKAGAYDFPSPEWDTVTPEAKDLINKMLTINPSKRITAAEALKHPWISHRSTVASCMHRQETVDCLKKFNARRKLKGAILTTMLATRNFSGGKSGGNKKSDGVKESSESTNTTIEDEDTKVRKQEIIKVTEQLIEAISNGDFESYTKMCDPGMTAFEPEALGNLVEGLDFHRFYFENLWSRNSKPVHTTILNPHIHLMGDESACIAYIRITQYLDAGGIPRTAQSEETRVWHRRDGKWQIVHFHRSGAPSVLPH
Sequence of Tyrosine-protein kinase Fyn (P06241 whole entry): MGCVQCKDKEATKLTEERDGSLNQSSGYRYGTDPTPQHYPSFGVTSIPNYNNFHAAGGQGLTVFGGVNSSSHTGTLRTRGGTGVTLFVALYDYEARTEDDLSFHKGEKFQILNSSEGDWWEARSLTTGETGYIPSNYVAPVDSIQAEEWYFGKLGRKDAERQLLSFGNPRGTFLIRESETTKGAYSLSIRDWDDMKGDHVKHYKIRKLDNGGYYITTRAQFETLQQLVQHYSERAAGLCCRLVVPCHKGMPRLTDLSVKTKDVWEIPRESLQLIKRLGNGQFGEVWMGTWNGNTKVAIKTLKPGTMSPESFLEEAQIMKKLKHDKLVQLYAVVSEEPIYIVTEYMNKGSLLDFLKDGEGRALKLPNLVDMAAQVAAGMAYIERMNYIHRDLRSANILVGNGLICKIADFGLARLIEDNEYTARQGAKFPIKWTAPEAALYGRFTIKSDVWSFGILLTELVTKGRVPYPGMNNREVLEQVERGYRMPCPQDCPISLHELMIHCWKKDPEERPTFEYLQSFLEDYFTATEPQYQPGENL

With `CC(C)(C)n1nc(-c2cccc3ccccc23)c2c(N)ncnc21` the IC50 [1] was 1000 nM, the IC50 [2] was 22000 nM and the IC50 [3] was 18000 nM. The IC50 [4] was 1.5 nM, the IC50 [5] was 6.5 nM and the IC50 [6] was 97 nM. It also gave an IC50 [7] of 15 nM.

`CC(C)(C)n1nc(Cc2cccc3ccccc23)c2c(N)ncnc21` gave an IC50 [1] of 28000 nM, an IC50 [8] of 1000 nM and an IC50 [9] of 3400 nM. For the same compound, the IC50 [2] was 24000 nM, the IC50 [3] was 29000 nM and the IC50 [4] was 4.3 nM. For the same compound, the IC50 [5] was 3.2 nM and the IC50 [10] was 120 nM.
